In patent US11096865B2, “Preservative removal from eye drops” (TearClear Corp., priority 2019, dated 2021):
Blank lines part the entries; values can stand above or below the molecule they belong to.

Experiment: 30 day drop test, API retention after dropper tip packed with OxPO
Assay type: physicochemical
Conditions: for API concentration in drops: tip packed with OxHDPE A-C 395, 125-250 μm, acid washed; for API concentration: Initial formulation
Procedure: To 60.0 g of ultrapure water was added 0.090 g hydroxyethyl cellulose (Natrosol 250H) and the solution was stirred overnight to dissolve. Subsequently, 0.176 g sodium citrate dihydrate and 0.960 g mannitol were added and the mixture was stirred until completely dissolved. 1.37 g Dorzolamide Hydrochloride, 0.420 g Timolol Maleate and 0.045 g of a 10% aqueous solution of BAK were added and incorporated. The pH was adjusted to 5.65 with 0.01N NaOH solution. The final nominal concentrations are reported below.
An empty dropper tip equipped with a 25 μm filter at the tip exit was packed with approximately […] of OxPO and the backing filter was attached to retain the OxPO packing in place. The weight of the OxPO packing was recorded. The packed tip was then inserted into the neck of an 8 ml dropper bottle containing 5 ml of the API/BAK test solution.
5 ml of the formulation described above containing nominally 5.0 mg/ml Timolol, 20.0 mg/ml Dorzolamide and 75 μg/ml BAK was loaded into six eyedropper bottles packed with OxHDPE (A-C 395, 125-250 μm, acid washed) as described above. Drops were obtained from each bottle twice a day (AM and PM 8 hours apart) and analyzed by HPLC for API and BAK.

API concentration in drops (Day 1A): 4.93 mg/mL
API concentration in drops (Day 1P): 4.91 mg/mL
API concentration in drops (Day 2A): 4.51 mg/mL
API concentration in drops (Day 2P): 4.64 mg/mL
API concentration in drops (Day 3A): 4.60 mg/mL
API concentration in drops (Day 3P): 4.65 mg/mL
API concentration in drops (Day 4A): 4.59 mg/mL
API concentration in drops (Day 4P): 4.72 mg/mL
API concentration in drops (Day 5A): 4.68 mg/mL
API concentration in drops (Day 5P): 4.78 mg/mL
API concentration in drops (Day 6A): 4.76 mg/mL
API concentration in drops (Day 6P): 4.90 mg/mL
API concentration in drops (Day 7A): 4.86 mg/mL
API concentration in drops (Day 7P): 4.91 mg/mL
API concentration in drops (Day 8A): 4.85 mg/mL
API concentration in drops (Day 8P): 4.89 mg/mL
API concentration in drops (Day 9A): 4.84 mg/mL
API concentration in drops (Day 9P): 4.87 mg/mL
API concentration in drops (Day 10A): 4.89 mg/mL
API concentration in drops (Day 10P): 4.90 mg/mL
API concentration in drops (Day 11A): 4.89 mg/mL
API concentration in drops (Day 11P): 4.96 mg/mL
API concentration in drops (Day 12A): 4.86 mg/mL
API concentration in drops (Day 12P): 4.95 mg/mL
API concentration in drops (Day 13A): 4.89 mg/mL
API concentration in drops (Day 13P): 4.93 mg/mL
API concentration in drops (Day 14A): 4.86 mg/mL
API concentration in drops (Day 14P): 4.97 mg/mL
API concentration in drops (Day 15A): 4.87 mg/mL
API concentration in drops (Day 15P): 4.93 mg/mL
API concentration in drops (Day 16A): 4.90 mg/mL
API concentration in drops (Day 16P): 5.01 mg/mL
API concentration in drops (Day 17A): 4.90 mg/mL
API concentration in drops (Day 17P): 4.97 mg/mL
API concentration in drops (Day 18A): 4.98 mg/mL
API concentration in drops (Day 18P): 4.97 mg/mL
API concentration in drops (Day 19A): 4.87 mg/mL
API concentration in drops (Day 19P): 4.98 mg/mL
API concentration in drops (Day 20A): 4.99 mg/mL
API concentration in drops (Day 20P): 5.02 mg/mL
API concentration in drops (Day 21A): 4.92 mg/mL
API concentration in drops (Day 21P): 4.95 mg/mL
API concentration in drops (Day 22A): 4.98 mg/mL
API concentration in drops (Day 22P): 4.93 mg/mL
API concentration in drops (Day 23A): 4.96 mg/mL
API concentration in drops (Day 23P): 4.97 mg/mL
API concentration in drops (Day 24A): 4.94 mg/mL
API concentration in drops (Day 24P): 4.96 mg/mL
API concentration in drops (Day 25A): 4.90 mg/mL
API concentration in drops (Day 25P): 4.93 mg/mL
API concentration in drops (Day 26A): 4.97 mg/mL
API concentration in drops (Day 26P): 4.96 mg/mL
API concentration in drops (Day 27A): 4.96 mg/mL
API concentration in drops (Day 27P): 4.97 mg/mL
API concentration in drops (Day 28A): 4.93 mg/mL
API concentration in drops (Day 28P): 4.95 mg/mL
API concentration in drops (Day 29A): 4.90 mg/mL
API concentration in drops (Day 29P): 4.93 mg/mL
API concentration in drops (Day 30A): 4.98 mg/mL
API concentration in drops (Day 30P): 4.97 mg/mL
API concentration: 5.04 (mg/ml)
Compound: CC(C)(C)NC[C@H](O)COc1nsnc1N1CCOCC1 [Timolol]

API concentration in drops (Day 1A): 20.0 mg/mL
API concentration in drops (Day 1P): 20.1 mg/mL
API concentration in drops (Day 2A): 19.2 mg/mL
API concentration in drops (Day 2P): 19.4 mg/mL
API concentration in drops (Day 3A): 19.5 mg/mL
API concentration in drops (Day 3P): 19.6 mg/mL
API concentration in drops (Day 4A): 19.3 mg/mL
API concentration in drops (Day 4P): 19.7 mg/mL
API concentration in drops (Day 5A): 19.7 mg/mL
API concentration in drops (Day 5P): 19.8 mg/mL
API concentration in drops (Day 6A): 19.8 mg/mL
API concentration in drops (Day 6P): 20.2 mg/mL
API concentration in drops (Day 7A): 20.3 mg/mL
API concentration in drops (Day 7P): 20.3 mg/mL
API concentration in drops (Day 8A): 20.1 mg/mL
API concentration in drops (Day 8P): 20.2 mg/mL
API concentration in drops (Day 9A): 19.8 mg/mL
API concentration in drops (Day 9P): 19.5 mg/mL
API concentration in drops (Day 10A): 19.8 mg/mL
API concentration in drops (Day 10P): 20.1 mg/mL
API concentration in drops (Day 11A): 19.9 mg/mL
API concentration in drops (Day 11P): 19.9 mg/mL
API concentration in drops (Day 12A): 19.8 mg/mL
API concentration in drops (Day 12P): 19.9 mg/mL
API concentration in drops (Day 13A): 19.9 mg/mL
API concentration in drops (Day 13P): 19.9 mg/mL
API concentration in drops (Day 14A): 19.7 mg/mL
API concentration in drops (Day 14P): 20.0 mg/mL
API concentration in drops (Day 15A): 19.8 mg/mL
API concentration in drops (Day 15P): 19.9 mg/mL
API concentration in drops (Day 16A): 19.5 mg/mL
API concentration in drops (Day 16P): 19.8 mg/mL
API concentration in drops (Day 17A): 19.4 mg/mL
API concentration in drops (Day 17P): 19.4 mg/mL
API concentration in drops (Day 18A): 19.7 mg/mL
API concentration in drops (Day 18P): 19.6 mg/mL
API concentration in drops (Day 19A): 19.2 mg/mL
API concentration in drops (Day 19P): 19.5 mg/mL
API concentration in drops (Day 20A): 19.6 mg/mL
API concentration in drops (Day 20P): 19.7 mg/mL
API concentration in drops (Day 21A): 19.6 mg/mL
API concentration in drops (Day 21P): 19.7 mg/mL
API concentration in drops (Day 22A): 20.0 mg/mL
API concentration in drops (Day 22P): 19.5 mg/mL
API concentration in drops (Day 23A): 19.8 mg/mL
API concentration in drops (Day 23P): 19.8 mg/mL
API concentration in drops (Day 24A): 19.8 mg/mL
API concentration in drops (Day 24P): 19.8 mg/mL
API concentration in drops (Day 25A): 19.6 mg/mL
API concentration in drops (Day 25P): 19.7 mg/mL
API concentration in drops (Day 26A): 20.2 mg/mL
API concentration in drops (Day 26P): 20.1 mg/mL
API concentration in drops (Day 27A): 20.1 mg/mL
API concentration in drops (Day 27P): 20.1 mg/mL
API concentration in drops (Day 28A): 20.1 mg/mL
API concentration in drops (Day 28P): 19.9 mg/mL
API concentration in drops (Day 29A): 19.6 mg/mL
API concentration in drops (Day 29P): 19.6 mg/mL
API concentration in drops (Day 30A): 20.1 mg/mL
API concentration in drops (Day 30P): 20.1 mg/mL
API concentration: 21.0 (mg/ml)
Compound: CCN[C@H]1C[C@H](C)S(=O)(=O)c2sc(S(N)(=O)=O)cc21 [Dorzolamide]
